Legend:
[1] = tested on: HIV-1 (HIV-1 RF, HIV-1 NL4-3) in CEM-SS / MT-2 cells; test: Cytopathic effect (CPE) inhibition assay (XTT/MTT dye reduction); type: cell-based; details: Human immunodeficiency virus 1, NL43; read-out: Ave CPE EC50
Summary of the method: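 CEM-SS or MT-2 cells were infected with HIV-1 RF or NL4-3 (moi 0.025–0.819) and plated at 2×10^4 cells/well with half-log compound dilutions for 6 days. Viability was read by XTT formazan at 450 nm after 4 h. EC50 restores formazan to 50% of uninfected untreated cells, CC50 halves it in uninfected cells, and TI = CC50/EC50.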

[2] = biological target: T1, HIV-1 protease (Q7S mutant form) (Human immunodeficiency virus type 1 group M subtype B, UniProt P04585, Q495S); test: HIV-1 Protease RET assay; type: biochemical; details: Ave. Ki (nM), RET assay, Q7S enzyme, Morrison tight binding fit
T1 construct: made in house
Summary of the method: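 Q7S HIV-1 protease, refolded from urea, 2 nM active dimer with 5 μM EDANS/DABCYL peptide cleaved at Tyr-Pro; fluorescence 340/490 nm. 12 min at 37 °C in 0.1M sodium acetate pH 4.8, 1M NaCl, 10% DMSO. Ki from Morrison tight-binding fit.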

Row | SMILES | EC50 [1] [nM] | Ki [2] [nM]
1 | Cc1ccccc1CNC(=O)[C@H]1N(C(=O)[C@@H](O)[C@H](Cc2ccccc2)NC(=O)OC(C)C)CSC1(C)C [Example B16, {(S)-1-Benzyl-3-[5,5-dimethyl-4-(2-methyl-benzylcarbamoyl)-thiazolidin-3-yl]-2-hydroxy-3-oxo-propyl}-carbamic acid isopropyl ester] | 1570 | 2.6
2 | C#CCCC(=O)N[C@@H](Cc1ccccc1)[C@H](O)C(=O)N1CSC(C)(C)[C@H]1C(=O)NCc1ccccc1C [Example B18, (R)-3-((2S,3S)-2-Hydroxy-3-pent-4-ynoylamino-4-phenyl-butyryl)-5,5-dimethyl-thiazolidine-4-carboxylic acid 2-methyl-benzylamide] | 1250 | 0.56
3 | C=CCNC(=O)[C@H]1N(C(=O)[C@@H](O)[C@H](Cc2ccccc2)NC(=O)O[C@H]2CCOC2)CSC1(C)C [Example B22, [(1S,2S)-3-((R)-4-Allylcarbamoyl-5,5-dimethyl-thiazolidin-3-yl)-1-benzyl-2-hydroxy-3-oxo-propyl]-carbamic acid (S)-(tetrahydro-furan-3-yl) ester] | 246 | 12
4 | C=CCNC(=O)[C@H]1N(C(=O)[C@@H](O)[C@H](Cc2ccccc2)NC(=O)COc2c(C)cccc2C)CSC1(C)C [Example B23, (R)-3-{(2S,3S)-3-[2-(2,6-Dimethyl-phenoxy)-ethanoylamino]-2-hydroxy-4-phenyl-butanoyl}-5,5-dimethyl-thiazolidine-4-carboxylic acid allylamide] | 294 | 0.15
5 | C=CCNC(=O)[C@H]1N(C(=O)[C@@H](O)[C@H](Cc2ccccc2)NC(=O)c2cccc3[nH]ncc23)CSC1(C)C [Example B24, 1-H-indazole-4-carboxylic acid [3-(4-allylcarbamoyl-5,5-dimethyl-thiazolidin-3-yl)-1-benzyl-2-hydroxy-3-oxo-propyl]-amide] | 512 | 8.3
6 | C=CCNC(=O)[C@H]1N(C(=O)[C@@H](O)[C@H](Cc2ccccc2)NC(=O)CSc2nc[nH]n2)CSC1(C)C [Example B25, (R)-3-{(2S,3S)-2-Hydroxy-4-phenyl-3-[2-(1H-[1,2,4]triazol-3-ylsulfanyl)-ethanoylamino]-butanoyl}-5,5-dimethyl-thiazolidine-4-carboxylic acid allylamide] | > 1000 | 21
7 | CC1(C)SCN(C(=O)[C@@H](O)[C@H](Cc2ccccc2)NC(=O)O[C@H]2CCOC2)[C@@H]1C(=O)NCC1CC1 [Example B26, {(1S,2S)-1-Benzyl-3-[(R)-4-(cyclopropylmethyl-carbamoyl)-5,5-dimethyl-thiazolidin-3-yl]-2-hydroxy-3-oxo-propyl}-carbamic acid (S)-(tetrahydro-furan-3-yl) ester] | 348 | 2.1
8 | Cc1cccc(C)c1OCC(=O)N[C@@H](Cc1ccccc1)[C@H](O)C(=O)N1CSC(C)(C)[C@H]1C(=O)NCC1CC1 [Example B27, (R)-3-{(2S,3S)-3-[2-(2,6-Dimethyl-phenoxy)-ethanoylamino]-2-hydroxy-4-phenyl-butanoyl}-5,5-dimethyl-thiazolidine-4-carboxylic acid cyclopropylmethyl-amide] | 506 | 0.5
9 | CC1(C)SCN(C(=O)[C@@H](O)[C@H](Cc2ccccc2)NC(=O)c2cccc3c2CCN3)[C@@H]1C(=O)NCC1CC1 [Example B28, 2,3-Dihydro-1H-indole-4-carboxylic acid {(1S,2S)-1-benzyl-3-[(R)-4-(cyclopropylmethyl-carbamoyl)-5,5-dimethyl-thiazoldin-3-yl]-2-hydroxy-3-oxo-propyl}-amide] | 731 | 4.2
10 | CC1(C)SCN(C(=O)[C@@H](O)[C@H](Cc2ccccc2)NC(=O)c2cccc3c2CCN3)[C@@H]1C(=O)N[C@H]1CCOc2ccccc21 [Example B29, 2,3-Dihydro-1H-indole-4-carboxylic acid {(1S,2S)-1-benzyl-3-[(R)-4-((S)-chroman-4-ylcarbamoyl)-5,5-dimethyl-thiazolidin-3-yl]-2-hydroxy-3-oxo-propyl}-amide] | 63 | 0.82
11 | CC1(C)SCN(C(=O)[C@@H](O)[C@H](Cc2ccccc2)NC(=O)CSc2nc[nH]n2)[C@@H]1C(=O)N[C@H]1CCOc2ccccc21 [Example B31, (R)-3-{(2S,3S)-2-Hydroxy-4-phenyl-3-[2-(1H-[1,2,4]triazol-3-ylsulfanyl)-ethanoylamino]-butanoyl}-5,5-dimethyl-thiazolidine-4-carboxylic acid (S)-chroman-4-ylamide] | > 1000 | 4.7
12 | C#CCNC(=O)[C@H]1N(C(=O)[C@@H](O)[C@H](Cc2ccccc2)NC(=O)c2cccc3c2CCN3)CSC1(C)C [Example B34, 2,3-Dihydro-1H-indole-4-carboxylic acid [(1S,2S)-1-benzyl-3-((R)-5,5-dimethyl-4-prop-2-ynylcarbamoyl-thiazoldin-3-yl)-2-hydroxy-3-oxo-propyl]-amide] | 389 | 1.2
13 | C#CCNC(=O)[C@H]1N(C(=O)[C@@H](O)[C@H](Cc2ccccc2)NC(=O)c2cccc3[nH]ncc23)CSC1(C)C [Example B35, 1-H-indazole-4-carboxylic acid [1-benzyl-3-(5,5-dimethyl-4-prop-2-ynylcarbamoyl-thiazolidin-3-yl)-2-hydroxy-3-oxo-propyl]-amide] | 564 | 11
14 | C#CCNC(=O)[C@H]1N(C(=O)[C@@H](O)[C@H](Cc2ccccc2)NC(=O)COc2c(C)cccc2C)CSC1(C)C [Example B36, (R)-3-{(2S,3S)-3-[2-(2,6-Dimethyl-phenoxy)-ethanoylamino]-2-hydroxy-4-phenyl-butanoyl}-5,5-dimethyl-thiazolidine-4-carboxylic acid prop-2-ynylamide] | 519 | < 0.1
15 | CC1(C)SCN(C(=O)[C@@H](O)[C@H](Cc2ccccc2)NC(=O)c2cccc3[nH]ncc23)[C@@H]1C(=O)NCc1ccco1 [Example B37, 1-H-indazole-4-carboxylic acid (1-benzyl-3-{4[(furan-2-ylmethyl)-carbamoyl]-5,5-dimethyl-thiazolidin-3-yl}-2-hydroxy-3-oxo-propyl)-amide] | 529 | 7.4
16 | Cc1cccc(C)c1OCC(=O)N[C@@H](Cc1ccccc1)[C@H](O)C(=O)N1CSC(C)(C)[C@H]1C(=O)NCc1ccco1 [Example B38, (R)-3-{(2S,3S)-3-[2-(2,6-Dimethyl-phenoxy)-ethanoylamino]-2-hydroxy-4-phenyl-butanoyl}-5,5-dimethyl-thiazolidine-4-carboxylic acid (furan-2-ylmethyl)-amide] | 600 | 0.16
17 | CC1(C)SCN(C(=O)[C@@H](O)[C@H](Cc2ccccc2)NC(=O)c2cccc3c2CCN3)[C@@H]1C(=O)NCc1ccco1 [Example B39, 2,3-Dihydro-1H-indole-4-carboxylic acid ((1S,2S)-1-benzyl-3-{(R)-4-[(furan-2-ylmethyl)-carbamoyl]-5,5-dimethyl-thiazolidin-3-yl}-2-hydroxy-3-oxo-propyl)-amide] | 372 | 1.9
18 | CC1(C)SCN(C(=O)[C@@H](O)[C@H](Cc2ccccc2)NC(=O)[C@@H]2CCCO2)[C@@H]1C(=O)NCc1ccco1 [Example B40, (R)-3-{(2S,3S)-2-Hydroxy-4-phenyl-3-[((S)-1-tetrahydro-furan-2-yl-methanoyl)-amino]-butanoyl}-5,5-dimethyl-thiazolidine-4-carboxylic acid (furan-2-ylmethyl)-amide] | > 1000 | 15.1
